One compound from article PMC6458995, “MAP4K4 Inhibition Promotes Survival of Human Stem Cell-Derived Cardiomyocytes and Reduces Infarct Size In Vivo” (Cell Stem Cell, 2019) can be followed below.

The subject of this experiment is iCell cardiomyocytes. Description: Human cardiac muscle cell death, DRAQ7 uptake (high-content). In kind it is cell-based. Conditions: H2O2, micromolar concentrations. As to the method: iCell cardiomyocytes were thawed, transferred to Plating Medium, counted using a Vi-CELL XR cell viability analyzer (Beckman Coulter), and seeded into 24-well plates for RNA collection (60,000 cells well^-1; Greiner) or μClear half-area 96-well plates for gene silencing (10,000 cells well^-1; Greiner). Plates were coated with 10 μg ml^-1 collagen type I (BD Biosciences). Cells were cultured in iCell Cardiomyocytes Plating Medium for 2 d and in Maintenance Medium thereafter. For compound dose-response comparisons, the cells were deposited in Plating Medium at 10,000 cells well^-1 in 0.1% (w/v) gelatin-coated 384-well white Greiner plates and were cultured as above for 8 d before treatment. […]
To measure loss of membrane integrity, iCell hiPSC-CMs were co-stained for 15 min at 37°C with 0.3 μM DRAQ7 (Biostatus), a cell-impermeable dye, and with 0.8 μM Hoescht 33342 (Molecular Probes), as the membrane-permeable dye. Dyes were removed and the nuclear fluorescence scored (typically, 15,000-20,000 cells well^-1) using a Cellomics ArrayScan VTI High Content Screening platform. The line harbors a cardiomyocyte-specific Myh6-driven reporter gene for monomeric red fluorescent protein (RFP), enabling cell death to be scored exclusively in the myocyte population. Successfully transduced cells were identified on the basis of TurboGFP fluorescence. […]

Turning to `Oc1ncnc2c1c(-c1ccccc1)cn2-c1ccccc1` [F1386-0303, 5,7-diphenyl-7H-pyrrolo[2,3-d]pyrimidin-4-ol], the “suppression of human cardiac muscle cell death (DRAQ7 uptake)” value was “highly protective”.
